Data: patent US4933456A, “Dipyridoxyl phosphate NMRI contrast agents” (Salutar, Inc., priority 1987, dated 1990)
Where two headings read alike, the source gives them in different places.

Columns and labels:
selected body organs = conditions: for T1: 0.01 mmol/kg i.v.
Description: Each of seven rabbits was injected intravenously with 0.01 mmol/kg of the solution obtained in Example 7. The rabbits were sacrificed at 0.25, 0.50, 1.0, 2.0, 4, 6 and 24 hours post-injection, and the proton relation values of selected body organs were measured with NMR, in vitro, at 10 MHz.

[1] = defects not observable without Mn(DPDP)

For `Cc1ncc(COP(=O)(O)O)c(CN(CCN(CC(=O)[O-])Cc2c(COP(=O)(O)O)cnc(C)c2O)CC(=O)[O-])c1O.[Mn+2]` [Mn(DPDP), sodium-calcium salt of a manganese chelate complex of N,N,-bis-(pyridoxal-5-phosphate)ethylenediamine-N,N'-diacetic acid or N,N'-bis(3-hydroxy-2-methyl-5-phosphonomethyl-4-pyridylmethyl)ethylenediamine-N,N'-diacetic acid], which T1 (selected body organs; Bile, 0.25 hr) is on record?
Its T1 is 160 ms.

And the T1 (selected body organs; Bile, 0.50 hr)?
The T1 was 46 ms.

What about the T1 (selected body organs; Bile, 1.0 hr) of the same compound?
The T1 was 25 ms.

And the T1 (selected body organs; Bile, 2 hr)?
The T1 was 21 ms.

What about the T1 (selected body organs; Bile, 4 hr) of the same compound?
The T1 was < 1 ms.

What about the T1 (selected body organs; Bile, 6 hr) of the same compound?
Its T1 is 14 ms.

What about the T1 (selected body organs; Bile, 24 hr) of the same compound?
Its T1 is 107 ms.

And the T1 (selected body organs; Heart, 0.25 hr)?
Its T1 is 231 ms.

What about the T1 (selected body organs; Heart, 0.50 hr) of the same compound?
The T1 was 352 ms.

And the T1 (selected body organs; Heart, 1.0 hr)?
The T1 was 381 ms.

What about the T1 (selected body organs; Heart, 2 hr) of the same compound?
Its T1 is 507 ms.

And the T1 (selected body organs; Heart, 4 hr)?
The T1 was 522 ms.

And the T1 (selected body organs; Heart, 6 hr)?
Its T1 is 663 ms.

What about the T1 (selected body organs; Heart, 24 hr) of the same compound?
The T1 was 660 ms.

And the T1 (selected body organs; Liver, 0.25 hr)?
Its T1 is 68 ms.

What about the T1 (selected body organs; Liver, 0.50 hr) of the same compound?
Its T1 is 76 ms.

What about the T1 (selected body organs; Liver, 1.0 hr) of the same compound?
The T1 was 48 ms.

What about the T1 (selected body organs; Liver, 2 hr) of the same compound?
The T1 was 48 ms.

What about the T1 (selected body organs; Liver, 4 hr) of the same compound?
The T1 was 145 ms.

And the T1 (selected body organs; Liver, 6 hr)?
The T1 was 209 ms.

What about the T1 (selected body organs; Liver, 24 hr) of the same compound?
Its T1 is 315 ms.

And the T1 (selected body organs; Renal cortex, 0.25 hr)?
The T1 was 202 ms.

What about the T1 (selected body organs; Renal cortex, 0.50 hr) of the same compound?
Its T1 is 191 ms.

What about the T1 (selected body organs; Renal cortex, 1.0 hr) of the same compound?
The T1 was 229 ms.

What about the T1 (selected body organs; Renal cortex, 2 hr) of the same compound?
The T1 was 192 ms.

What about the T1 (selected body organs; Renal cortex, 4 hr) of the same compound?
Its T1 is 210 ms.

And the T1 (selected body organs; Renal cortex, 6 hr)?
Its T1 is 239 ms.

What about the T1 (selected body organs; Renal cortex, 24 hr) of the same compound?
The T1 was 328 ms.

What about the T1 (selected body organs; Renal medulla, 0.25 hr) of the same compound?
The T1 was 192 ms.

What about the T1 (selected body organs; Renal medulla, 0.50 hr) of the same compound?
Its T1 is 231 ms.

What about the T1 (selected body organs; Renal medulla, 1.0 hr) of the same compound?
Its T1 is 236 ms.

And the T1 (selected body organs; Renal medulla, 2 hr)?
The T1 was 310 ms.

What about the T1 (selected body organs; Renal medulla, 4 hr) of the same compound?
Its T1 is 340 ms.

And the T1 (selected body organs; Renal medulla, 6 hr)?
The T1 was 375 ms.

What about the T1 (selected body organs; Renal medulla, 24 hr) of the same compound?
The T1 was 563 ms.

What about the “clearance through both the renal and hepatobiliary systems, time post-injection” value (selected body organs; rabbit, i.v.) of the same compound?
Its value is 6 to 8 h.

What about the “uptake and clearance in the liver, renal cortex, renal medulla and heart” value (selected body organs; rabbit, i.v.) of the same compound?
Its value is “rapid uptake and clearance”.

And the “detection of blood-brain barrier defects by NMRI tomography” value [1]?
Its value is “defects were observed by NMRI tomography”.
